Patent publication US20240277890A1, “ANTIMICROBIAL ARTICLES COMPRISING POLYURETHANE” (Amicoat AS, priority 2021, published 2024)
≈ marks a conversion by molar mass, not a printed value. Read-outs that look alike come from different tables or passages of the source. Peptide text beside a SMILES is read from it. * marks the point of attachment. NHPhenethyl = c1ccc(CCN*)cc1

Legend:
[1] = test system: C. albicans
[2] = test system: Methicillin resistant Staphylococcus aureus (MRSA) strain ATCC 33591
[3] = test system: Methicillin resistant Staphylococcus epidermidis (MRSE) strain ATCC 27626
[4] = test system: E. coli; conditions: Table 5
[5] = test system: Staphylococcus aureus, strain ATCC 25923
[6] = test system: P. aeruginosa; conditions: Table 5
[7] = test system: S. pyogenes
[8] = test system: trypsin; test: in vitro; type: in vitro ADME; conditions: pH 8.6
Procedure: Each peptide was dissolved in a 0.1 M NH4HCO3 buffer (pH 6.5) to yield a final peptide concentration of 1 mg/ml. A trypsin solution was prepared by dissolving 1 mg of trypsin in 50 ml 0.1 M NH4HCO3 buffer (pH 8.2). For the stability determination, 250 μl freshly made trypsin solution and 250 μl peptide solution were incubated in 2 ml of 0.1 M NH4HCO3 buffer (pH 8.6) at 37° C. on a rocking table. Aliquots of 0.5 ml were sampled at different time intervals, diluted with 0.5 ml water:acetonitrile (60:40 v/v) containing 1% TFA and analysed by RP-HPLC as described above. Samples without trypsin addition taken at 0 h and after 20 h at 37° C. were used as negative controls. Integration of the peak area at 254 nm for samples taken during the first 5 hours of the assay was used to generate the τ1/2.

[9] = test system: Salmonella sp - antibiotic-susceptible clinical isolate; test: MIC microbroth dilution (CLSI); type: cell-based
[10] = test system: Pseudomonas aeruginosa ATCC27853 - antibiotic-susceptible type strain; parameters: MIC (repeat control strain): unit not given beside the values; conditions: P. aeruginosa ATCC 27853
[11] = test system: Eggerthella lenta - ATCC 43055; test: MIC microbroth dilution (CLSI), extra control strain; type: cell-based; parameters: unit not given here; conditions: E. lenta ATCC 43055; SBB
[12] = test system: Candida parapsilosis ATCC 22019; test: as above; type: cell-based; parameters: unit not given here; conditions: C. parapsilosis ATCC 22019; RPMI 1640
[13] = test system: Bacteroides fragilis - ATCC 25285; test: as above; type: cell-based; parameters: unit not given here; conditions: B. fragilis ATCC 25285; SBB
[14] = test system: Salmonella sp - multi-drug resistant clinical isolate; test: MIC microbroth dilution (CLSI); type: cell-based
[15] = test system: Haemophilus influenzae - ATCC 47247; test: MIC microbroth dilution (CLSI), extra control strain; parameters: unit not given beside the values; conditions: H. influenzae ATCC 47247; plate type HTM
[16] = test system: Clostridium difficile - antibiotic-susceptible clinical isolate; test: MIC microbroth dilution (CLSI); type: cell-based; parameters: unit not given beside the values; conditions: C. difficile antibiotic-susceptible
Procedure: Supplemented Brucella broth (SBB) was used for the anaerobic strains with an inoculum of approximately 10^6 CFU/mL. SBB is a broth consisting of 1% peptone, 0.5% ‘Lab-lemco’, 1% glucose and 0.5% sodium chloride supplemented with 5 μg/L haemin and 1 μg/L vitamin K (both obtained from Sigma Aldrich Ltd.) Yeast and filamentous fungal MIC were performed in MOPS buffered RPMI 1640 medium (MOPS buffer obtained from Sigma Aldrich Ltd., RPMI 1640 obtained from Invitrogen Ltd, Paisley, Scotland). The yeast inocula were in the range 7.5×10^2-4×10^3 CFU/mL and the filamentous fungi approximately 8×10^3-1×10^5 CFU/mL.

[17] = test system: Staphylococcus haemolyticus - antibiotic susceptible clinical isolate; conditions: S. haemolyticus antibiotic susceptible isolate
[18] = test system: Staphylococcus aureus FDA486; test: Murine skin infection model, one day topical treatment; type: in vivo, mice; conditions: cream or gel containing 2% (w/w) of compound; three topical treatments at three hourly intervals; compared to placebo
Procedure: (§1) The skin of mice was infected with Staphylococcus aureus or Streptococcus pyogenes and subsequently given a total of three treatments at three hourly intervals. Three hours after the last treatment, skin biopsies were collected and the number of colony forming units (CFUs) present in the skin sample was determined. Results are shown in FIGS. 3, 4 and 5 expressed as the number of colony forming units per mouse.

[19] = test system: Streptococcus pyogenes CS301; test: as above; type: in vivo, mice
Procedure: as §1

[20] = test system: Enterococcus faecalis - ATCC 29212 antibiotic-susceptible control strain; parameters: MIC (repeat control strain): unit not given beside the values; conditions: E. faecalis ATCC 29212
[21] = test system: Staphylococcus aureus ATCC 29213 - antibiotic-susceptible control strain; parameters: MIC (repeat control strain): unit not given beside the values; conditions: S. aureus ATCC 29213
[22] = test system: Escherichia coli ATCC25922 - antibiotic-susceptible type strain; parameters: MIC (repeat control strain): unit not given beside the values; conditions: E. coli ATCC 25922
[23] = test system: Shigella sp - antibiotic-susceptible clinical isolate; test: MIC microbroth dilution (CLSI); type: cell-based
[24] = test system: Microsporum canis - G.R. Micro collection; conditions: M. canis
[25] = Staphylococcus aureus ATCC 25923

CCCCCCCCCCCCCCCCNC(=O)[C@H](CCCNC(=N)N)NC(=O)[C@H](Cc1c(C(C)(C)C)[nH]c2c(C(C)(C)C)cc(C(C)(C)C)cc12)NC(=O)[C@@H](N)CCCNC(=N)N [Compound 11]
C. albicans (MIC) ([1]; Table 5): >100 µg/mL | MRSA (MIC) ([2]; MRSA ATCC 33591): 4 µg/mL | MRSE (MIC) ([3]; MRSE ATCC 27626): 4 µg/mL | E. coli (MIC) [4]: >100 µg/mL | S. aureus (MIC) [5, 25]: 5 µg/mL | P. aeruginosa (MIC) [6]: >100 µg/mL | S. pyogenes (MIC) ([7]; Table 5): 6 µg/mL

CC(C)(C)c1cc(C(C)(C)C)c2[nH]c(C(C)(C)C)c(C[C@H](NC(=O)[C@@H](N)CCCNC(=N)N)C(=O)N[C@@H](CCCNC(=N)N)C(=O)NC3CCCC3)c2c1 [Compound 14]
C. albicans (MIC) [1]: 10 µg/mL | MRSE (MIC) ([3]; ATCC 27626): <2 µg/mL | S. aureus (MIC) ([5]; ATCC 25923): <2 µg/mL | S. pyogenes (MIC) [7]: 2 µg/mL

CCCNC(=O)[C@H](CCCNC(=N)N)NC(=O)[C@H](Cc1c(C(C)(C)C)[nH]c2c(C(C)(C)C)cc(C(C)(C)C)cc12)NC(=O)[C@@H](N)CCCNC(=N)N [Compound 10]
C. albicans (MIC) [1]: 10 µg/mL | MRSA (MIC) ([2]; ATCC 33591): 3 µg/mL | MRSE (MIC) ([3]; ATCC 27626): <2 µg/mL | S. aureus (MIC) ([5]; ATCC 25923): 2 µg/mL | S. pyogenes (MIC) [7]: 2 µg/mL

N=C(N)NCCC[C@H](NC(=O)[C@H](Cc1ccc(-c2ccc(-c3ccccc3)cc2)cc1)NC(=O)[C@@H](N)CCCNC(=N)N)C(=O)NCCc1ccccc1 [Compound 5]
MIC MRSA ([2]; MRSA ATCC 33591): 3 µM (≈ 2.2 µg/mL) | MIC MRSE ([3]; MRSE ATCC 27626): 3 µM (≈ 2.2 µg/mL) | MIC S. aureus [5, 25]: 5 µM (≈ 3.66 µg/mL)

N=C(N)NCCC[C@H](NC(=O)[C@H](Cc1ccc(-c2ccc3ccccc3c2)cc1)NC(=O)[C@@H](N)CCCNC(=N)N)C(=O)NCCc1ccccc1 [Compound 1]
MIC MRSA ([2]; MRSA ATCC 33591): <3 µM | MIC MRSE ([3]; MRSE ATCC 27626): <3 µM | MIC S. aureus [5, 25]: 4 µM (≈ 2.83 µg/mL) | half-life at 0.1 mg/ml [8]: > 24 h

CCCCNC(=O)[C@H](CCCNC(=N)N)NC(=O)[C@H](Cc1c(C(C)(C)C)[nH]c2c(C(C)(C)C)cc(C(C)(C)C)cc12)NC(=O)[C@@H](N)CCCNC(=N)N [Compound 9]
C. albicans (MIC) [1]: 10 µg/mL | MRSA (MIC) ([2]; ATCC 33591): 3 µg/mL | MRSE (MIC) ([3]; ATCC 27626): <2 µg/mL | S. aureus (MIC) ([5]; ATCC 25923): 2 µg/mL | S. pyogenes (MIC) [7]: 2 µg/mL

N=C(N)NCCC[C@H](NC(=O)[C@H](Cc1c[nH]c2ccccc12)NC(=O)[C@@H](N)CCCNC(=N)N)C(=O)NCCc1ccccc1 [Compound 6, reference compound] (H-Arg-Trp-Arg-NHPhenethyl)
MIC MRSA ([2]; MRSA ATCC 33591): 97 µM (≈ 60.1 µg/mL) | MIC MRSE ([3]; MRSE ATCC 27626): 81 µM (≈ 50.2 µg/mL) | MIC S. aureus [5, 25]: 145 µM (≈ 89.9 µg/mL)

CC(C)(C)c1cc(C(C)(C)C)c2[nH]c(C(C)(C)C)c(CC(NC(=O)C(N)CCCNC(=N)N)C(=O)NC(CCCNC(=N)N)C(=O)NCCc3ccccc3)c2c1 (stereo not shown) [Compound 2]
MIC [9]: 8 | MIC (repeat control strain) ([10]; plate type Fresh MHB): 8 | MIC (repeat control strain) ([10]; plate type Frozen MHB): 8 | MIC (control strain) [11]: 32 | MIC (control strain) [12]: 8 | MIC (control strain) [13]: 64 | MIC [14]: 8 | MIC (control strain) [15]: 4 | MIC [16]: 16 | MIC [17]: 4 | number of CFUs in skin biopsy [18]: the number of CFUs was reduced | number of CFUs in skin biopsy ([19]; 1% or 2% gel, three topical treatments at three hourly intervals, compared to placebo gel and bactroban): more effective at reducing the number of CFUs than the placebo gel or the bactroban | number of CFUs in skin biopsy, 2% gel versus 1% gel ([19]; gel containing 2% compared to gel containing 1%): more effective than the gel containing only 1% of compound 2 | MIC (repeat control strain) ([20]; plate type Fresh MHB): 4 | MIC (repeat control strain) ([20]; plate type Frozen MHB): 8 | MIC (repeat control strain) ([21]; plate type Fresh MHB): 2 | MIC (repeat control strain) ([21]; plate type Frozen MHB): 4 | MIC (repeat control strain) ([22]; plate type Fresh MHB): 8 | MIC (repeat control strain) ([22]; plate type Frozen MHB): 8 | MIC [23]: 8 | MIC [24]: 8

N=C(N)NCCC[C@H](NC(=O)[C@H](Cc1ccc(-c2cccc3ccccc23)cc1)NC(=O)[C@@H](N)CCCNC(=N)N)C(=O)NCCc1ccccc1 [Compound 3]
MIC MRSA ([2]; MRSA ATCC 33591): 3 µM (≈ 2.12 µg/mL) | MIC MRSE ([3]; MRSE ATCC 27626): 3 µM (≈ 2.12 µg/mL)

CC(C)(C)c1cc(C(C)(C)C)c2[nH]c(C(C)(C)C)c(C[C@H](NC(=O)[C@@H](N)CCCNC(=N)N)C(=O)N[C@@H](CCCNC(=N)N)C(=O)NC3CCCCC3)c2c1 [Compound 13]
C. albicans (MIC) [1]: 10 µg/mL | MRSA (MIC) ([2]; ATCC 33591): 2 µg/mL | MRSE (MIC) ([3]; ATCC 27626): 2 µg/mL | S. aureus (MIC) ([5]; ATCC 25923): <2 µg/mL | S. pyogenes (MIC) [7]: <2 µg/mL

CC(C)CNC(=O)[C@H](CCCNC(=N)N)NC(=O)[C@H](Cc1c(C(C)(C)C)[nH]c2c(C(C)(C)C)cc(C(C)(C)C)cc12)NC(=O)[C@@H](N)CCCNC(=N)N [Compound 12]
C. albicans (MIC) [1]: 10 µg/mL | MRSA (MIC) ([2]; ATCC 33591): 3 µg/mL | MRSE (MIC) ([3]; ATCC 27626): 2 µg/mL | S. aureus (MIC) ([5]; ATCC 25923): <2 µg/mL | S. pyogenes (MIC) [7]: 2 µg/mL
